Legend:
Experiment in all cases: relative viability (nuclei count vs DMSO), 5 days (fraction); higher = more cells survive
Veliparib + Palbociclib = compound: C[C@]1(c2nc3c(C(N)=O)cccc3[nH]2)CCCN1 [Veliparib] + CC(=O)c1c(C)c2cnc(Nc3ccc(N4CCNCC4)cn3)nc2n(C2CCCC2)c1=O [Palbociclib] (partner 0.5 µM)
Procedure, shortened: (§1)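 For relative viability, nuclei counts in treated wells were divided by those in vehicle wells. Lung cancer cell lines had been pin-tool dosed in 1536-well plates the day after seeding and cultured for 5 days, then fixed and stained in one step (final 0.05% Triton X-100, 1% formaldehyde, 1 ug/ml Hoechst) and imaged at 4×. Doses were one drug alone or a fixed anchor-drug dose plus five library-drug doses (not always all listed) in √10 steps, and values are duplicate-plate medians.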

Veliparib + Tozasertib = compound: C[C@]1(c2nc3c(C(N)=O)cccc3[nH]2)CCCN1 [Veliparib] + Cc1cc(Nc2cc(N3CCN(C)CC3)nc(Sc3ccc(NC(=O)C4CC4)cc3)n2)n[nH]1 [Tozasertib] (partner 0.1 µM)
Procedure, shortened: as §1

Veliparib + Phenformin = compound: C[C@]1(c2nc3c(C(N)=O)cccc3[nH]2)CCCN1 [Veliparib] + N=C(N)NC(=N)NCCc1ccccc1 [Phenformin] (partner 250 µM)
Procedure, shortened: as §1

Veliparib + Alpelisib = compound: C[C@]1(c2nc3c(C(N)=O)cccc3[nH]2)CCCN1 [Veliparib] + Cc1nc(NC(=O)N2CCC[C@H]2C(N)=O)sc1-c1ccnc(C(C)(C)C(F)(F)F)c1 [Alpelisib] (partner 2 µM)
Procedure, shortened: as §1

| Cell Line | relative viability (Veliparib + Palbociclib; first compound 0.02 µM) | relative viability (Veliparib + Palbociclib; first compound 0.06325 µM) | relative viability (Veliparib + Palbociclib; first compound 0.2 µM) | relative viability (Veliparib + Palbociclib; first compound 0.6325 µM) | relative viability (Veliparib + Palbociclib; first compound 2 µM) | relative viability (Veliparib + Tozasertib; first compound 0.02 µM) | relative viability (Veliparib + Tozasertib; first compound 0.06325 µM) | relative viability (Veliparib + Tozasertib; first compound 0.2 µM) | relative viability (Veliparib + Tozasertib; first compound 0.6325 µM) | relative viability (Veliparib + Tozasertib; first compound 2 µM) | relative viability (Veliparib + Phenformin; first compound 0.02 µM) | relative viability (Veliparib + Phenformin; first compound 0.06325 µM) | relative viability (Veliparib + Phenformin; first compound 0.2 µM) | relative viability (Veliparib + Phenformin; first compound 0.6325 µM) | relative viability (Veliparib + Phenformin; first compound 2 µM) | relative viability (Veliparib + Alpelisib; first compound 0.02 µM) | relative viability (Veliparib + Alpelisib; first compound 0.06325 µM) | relative viability (Veliparib + Alpelisib; first compound 0.2 µM) | relative viability (Veliparib + Alpelisib; first compound 0.6325 µM) | relative viability (Veliparib + Alpelisib; first compound 2 µM) |
| --- | --- | --- | --- | --- | --- | --- | --- | --- | --- | --- | --- | --- | --- | --- | --- | --- | --- | --- | --- | --- |
| 201T | 0.352 | 0.353 | 0.364 | 0.356 | 0.373 | 0.935 | 0.952 | 0.961 | 0.946 | 0.921 | 0.411 | 0.356 | 0.463 | 0.457 | 0.462 | 1.02 | 1.02 | 1.02 | 1.01 | 0.973 |
| A549 |  |  |  |  |  |  |  |  |  |  |  | 0.209 | 0.166 | 0.143 | 0.185 | 0.697 | 0.686 | 0.75 | 0.688 | 0.796 |
| A-427 | 0.507 | 0.51 | 0.529 | 0.5 | 0.593 |  | 0.232 | 0.181 | 0.198 | 0.283 |  | 0.29 | 0.328 | 0.391 | 0.278 | 1.1 | 1.01 | 1.06 | 1.06 | 1.14 |
| ABC-1 |  |  | 0.863 | 0.694 | 0.405 |  | 0.196 | 0.137 | 0.175 | 0.17 |  | 0.227 | 0.265 | 0.233 | 0.288 |  | 0.809 | 1.1 | 1.05 | 0.894 |
| BEN | 0.466 | 0.491 | 0.479 | 0.5 | 0.465 | 0.456 | 0.558 | 0.524 | 0.477 | 0.481 | 0.24 | 0.251 | 0.292 | 0.253 | 0.25 | 0.925 | 0.982 | 1.2 | 0.992 | 1.05 |
| CAL-12T | 0.179 | 0.301 | 0.402 | 0.382 | 0.58 | 0.317 | 0.376 | 0.327 | 0.318 | 0.369 | 0.436 | 0.617 | 0.537 | 0.54 | 0.53 | 1.23 | 1.05 | 1.4 | 1.12 | 1.24 |
| COR-L23 | 0.27 | 0.237 | 0.252 | 0.25 | 0.27 | 0.229 | 0.249 | 0.257 | 0.216 | 0.172 | 0.409 | 0.373 | 0.4 | 0.407 | 0.425 | 0.784 | 0.733 | 0.874 | 0.597 | 0.786 |
| COR-L 105 | 0.402 | 0.47 | 0.4 | 0.375 | 0.444 | 0.35 | 0.307 | 0.434 | 0.313 | 0.346 | 0.386 | 0.464 | 0.504 | 0.492 | 0.451 | 1.12 | 1.1 | 1.09 | 0.862 | 1.11 |
| Calu-6 |  |  |  |  |  |  |  |  |  |  |  |  |  |  |  | 1.15 | 0.909 | 1.01 | 0.988 | 1.02 |
| ChaGo-K-1 | 0.712 | 0.951 | 1.02 | 0.892 | 0.944 | 0.206 | 0.217 | 0.219 | 0.199 | 0.24 | 0.326 | 0.517 | 0.465 | 0.471 | 0.514 |  |  |  |  |  |
| EBC-1 |  |  |  |  |  |  |  |  |  |  |  |  |  |  |  | 0.882 | 0.77 | 0.849 | 0.654 | 0.858 |
| IA-LM |  |  |  |  |  |  |  |  |  |  |  |  |  |  |  | 0.796 | 0.764 | 0.684 | 0.503 | 0.968 |
| NCI-H522 | 1.01 | 0.864 | 1.18 | 1.11 | 1 | 0.628 | 0.579 | 0.508 | 0.598 | 0.545 | 0.683 | 0.664 | 0.667 | 0.583 | 0.802 |  |  |  |  |  |
| NCI-H596 |  |  |  |  |  | 0.838 | 0.774 | 0.99 | 0.859 | 0.811 | 0.633 | 0.744 | 0.809 | 0.725 | 0.747 | 0.516 | 0.497 | 0.541 | 0.472 | 0.526 |
| NCI-H1299 |  |  |  |  |  |  |  |  |  |  |  |  |  |  |  | 1.04 | 0.992 | 1.03 | 0.985 | 1.05 |
| NCI-H1563 |  |  |  |  |  |  |  |  |  |  | 0.594 | 0.638 | 0.686 | 0.643 | 0.667 | 0.981 | 0.965 | 1 | 0.826 | 1.04 |
| NCI-H1648 | 0.257 |  |  | 0.232 | 0.274 | 0.723 | 0.469 | 0.383 | 0.405 | 0.363 |  |  |  |  |  |  |  |  |  |  |
| NCI-H1650 | 0.236 | 0.305 | 0.28 | 0.322 | 0.345 |  | 0.441 | 0.486 | 0.448 | 0.526 |  | 0.473 | 0.519 | 0.404 | 0.34 |  |  |  |  |  |
| NCI-H1703 |  |  |  |  |  |  |  |  |  |  |  |  |  |  |  | 0.245 | 0.303 | 0.316 | 0.35 | 0.368 |
| NCI-H1792 | 0.635 | 0.603 | 0.704 | 0.692 | 0.659 |  |  |  |  |  | 0.212 | 0.213 | 0.398 | 0.328 | 0.247 | 0.678 | 0.592 | 0.799 | 0.65 | 0.645 |
| NCI-H2342 | 0.482 | 0.581 | 0.503 | 0.522 | 0.491 | 0.498 | 0.573 | 0.421 | 0.504 | 0.508 | 0.583 | 0.589 | 0.506 | 0.579 | 0.587 |  |  |  |  |  |
| SW 900 |  | 0.516 | 0.557 | 0.539 | 0.56 |  |  | 0.636 | 0.533 | 0.586 |  |  | 0.679 | 0.504 | 0.508 |  |  |  |  |  |

From the supplement of paper PMC10307832
